Data published in ChEMBL document CHEMBL1201862, “PubChem BioAssay data set” (2004).
The source made the active and inactive calls.

Legend:
Bcl-2-like protein 10 = target: T1, Bcl-2-like protein 10 (Homo sapiens, UniProt Q9HD36); test: displacers of TR3 peptide from Bcl-B, primary screen, selectivity assay for Bfl-1 inhibitor project, biochemical, fluorescence polarization, FITC-TR3 peptide (AID 748);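 also: fluorescence polarization from a fluorescein-labelled TR3 peptide binding purified Bcl-B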
T1 sequence (Q9HD36 whole entry): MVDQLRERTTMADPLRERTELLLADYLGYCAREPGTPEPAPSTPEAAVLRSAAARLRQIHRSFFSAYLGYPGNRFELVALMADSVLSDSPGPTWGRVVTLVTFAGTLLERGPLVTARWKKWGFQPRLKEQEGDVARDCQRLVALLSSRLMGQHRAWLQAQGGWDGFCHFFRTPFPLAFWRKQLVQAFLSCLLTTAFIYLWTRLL

Saccharomyces cerevisiae = test: NALP1 inhibitor project selectivity study, Caspase-1/ASC signal blockade IC50 in S. cerevisiae (AID 488863); format: functional, organism-based
[1] = target: NACHT, LRR and PYD domains-containing protein 1 (Homo sapiens, UniProt Q9C000); test: NALP1 inhibitors in yeast, dose response, luminescent (AID 488860); format: functional
Salmon testes DNA = test: DNA intercalators displacing acridine orange, dose response, artefact control for KSHV LANA DNA-binding inhibitor project, biochemical, fluorescence polarization, cherry-picked samples, set 2 (AID 504727); design: species or system Salmonidae
ORF 73 = ORF 73 (Human herpesvirus 8, UniProt O40947); test: inhibitors of C-LANA binding to LBS DNA, dose response, biochemical, fluorescence polarization, cherry-picked samples (AID 504725); design: species or system Human gammaherpesvirus 8;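 also: fluorescence polarization of a labeled DNA duplex reporting LANA DNA binding; potency is for inhibitors that block LANA binding to the DNA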
H4 = test: Luminescence Cell-Based Dose Response HTS to Identify Activators of 5'UTR Stem-Loop Driven Prion Protein mRNA Translation in H4 Neuroglioblastoma Cells. [Related pubchem assays: 1829 (Project Summary), 1814 (Primary HTS)]; format: functional; settings: Homo sapiens
[2] = Luminescence Cell-Based Dose Response to Identify Activators of Luciferase Translation or Activity in H4-C Neuroglioblastoma Cells. [Related pubchem assays: 1829 (Project Summary), 1814 (Primary HTS)]; format: functional
[3] = Luminescence Cell-Based Dose Confirmation to Identify Activators of 5'UTR Stem-Loop Driven Alpha-Synuclein mRNA Translation in H4 Neuroglioblastoma Cells. [Related pubchem assays: 1829 (Project Summary), 1814 (Primary HTS)]; format: functional
[4] = Luminescence Cell-Based Dose Confirmation HTS to Identify Activators of 5'UTR Stem-Loop Driven Alpha-Synuclein mRNA Translation in H4 Neuroglioblastoma Cells. [Related pubchem assays: 1829 (Project Summary), 1814 (Primary HTS)]; format: functional
[5] = Luminescence Cell-Based Dose Response to Identify Activators of 5'UTR Stem-Loop Driven Prion Protein mRNA Translation in H4-C Neuroglioblastoma Cells. [Related pubchem assays: 1829 (Project Summary), 1814 (Primary HTS)]; format: functional
[6] = Luminescence Cell-Based Dose Response HTS to Identify Activators of 5'UTR Stem-Loop Driven Prion Protein mRNA Translation in H4-C Neuroglioblastoma Cells. [Related pubchem assays: 1829 (Project Summary), 1814 (Primary HTS)]; format: functional
[7] = Luminescence Cell-Based Dose Response HTS to Identify Activators of Luciferase Translation or Activity in H4-C Neuroglioblastoma Cells. [Related pubchem assays: 1829 (Project Summary), 1814 (Primary HTS)]; format: functional
[8] = Luminescence Cell-Based Dose Retest to Confirm Activators of 5'UTR Stem-Loop Driven Alpha-Synuclein mRNA Translation in H4 Neuroglioblastoma Cells. [Related pubchem assays (depositor defined):AID1813, AID1829]; format: functional
[9] = Luminescence Cell-Based Dose Response HTS to Identify Activators of Luciferase Translation or Activity in H4 […] Cells. [Related pubchem assays: 1829 (Project Summary), 1814 (Primary HTS)]; format: functional
SUMO-activating enzyme [10] = target: T2, SUMO-activating enzyme (Homo sapiens, UniProt Q9UBT2); test: SUMOylation inhibitor hit validation, confirmation, SUMOylation inhibitor project, biochemical, AlphaScreen (AID 2018); format: functional
[11] = target: T3, Endoribonuclease toxin MazF (Escherichia coli K-12, UniProt P0AE70); test: fluorescent RNA oligo signal without MazF, dose response, counter-screen for MazEF activator project, biochemical, fluorescence, single-stranded RNase substrate (AID 588502); format: functional
T3 sequence (P0AE70 whole entry): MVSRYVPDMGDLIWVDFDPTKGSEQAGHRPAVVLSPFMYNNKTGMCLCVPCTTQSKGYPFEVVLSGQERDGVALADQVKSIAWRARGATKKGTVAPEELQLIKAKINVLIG

[12] = target: T3, Endoribonuclease toxin MazF; test: MazF toxin RNase activators, dose response, biochemical, fluorescence, single-stranded RNA substrate, uHTS hits (AID 588481); format: functional
SUMO-activating enzyme [13] = target: T2, SUMO-activating enzyme; test: inhibitors of in vitro SUMOylation cascade, primary screen, biochemical, HTRF, uHTS (AID 2006); format: protein-complex assay
Beta-galactosidase = Beta-galactosidase (Escherichia coli, UniProt Q8VNN2); format: functional
cells = format: functional, cell-based; settings: HEK-CNG
[14] = HepG2 cell cytotoxicity, dose response, cytotoxicity control for Shn3 inhibitor project, CellTiter-Glo, cherry-picked (AID 624134); format: functional, cell-based
Galanin receptor type 3 = target: T4, Galanin receptor type 3 (Homo sapiens, UniProt O60755); test: Fluorescence-based cell-based primary high throughput dose response assay to identify antagonists of the Galanin Receptor 3 (GalR3).; format: functional
T4 sequence (O60755 whole entry): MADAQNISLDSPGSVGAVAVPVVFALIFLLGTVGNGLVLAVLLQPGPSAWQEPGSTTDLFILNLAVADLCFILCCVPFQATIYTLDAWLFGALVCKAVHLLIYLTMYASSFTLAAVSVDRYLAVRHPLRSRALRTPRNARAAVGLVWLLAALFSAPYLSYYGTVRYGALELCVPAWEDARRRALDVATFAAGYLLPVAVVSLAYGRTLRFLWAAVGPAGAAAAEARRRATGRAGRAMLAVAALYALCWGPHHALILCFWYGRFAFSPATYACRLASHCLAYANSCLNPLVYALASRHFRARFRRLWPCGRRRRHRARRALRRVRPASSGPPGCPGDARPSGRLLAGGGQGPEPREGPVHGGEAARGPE

INS1 = test: beta cell apoptosis inhibitors, cytokine rescue, dose response, luminescence, retest (AID 449756); format: functional, cell-based; settings: Rattus norvegicus;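 also: cell death triggered by IL-1 beta plus TNF-alpha plus IFN-gamma mixture; protective hits raise ATP signal compared with cytokine alone wells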
[15] = cytotoxicity in HEK-293T cells, dose response, cytotoxicity control for BCR NF-kB inhibitor project, luminescence, B-cell screen hits (AID 489021); format: functional, cell-based;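 also: HEK-293T cells carrying an NF-kB luciferase reporter; cells exposed to compound for about 14 hours before viability readout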
[16] = Shn3 3'UTR reporter inhibitors, dose response, cell-based, Clone20 osteoblasts, firefly luciferase, cherry-picked (AID 624132); format: functional;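 also: firefly luciferase luminescence from reporter carrying the Shn3 3'UTR in osteoblasts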
[17] = control 3'UTR Renilla luciferase suppression, dose response, counter-screen for Shn3 inhibitor project, cell-based, Clone20-Shn3RL, cherry-picked (AID 624133); format: functional

Chain of NACHT, LRR and PYD domains-containing protein 1 (Q9C000 1-1212 limits assumed): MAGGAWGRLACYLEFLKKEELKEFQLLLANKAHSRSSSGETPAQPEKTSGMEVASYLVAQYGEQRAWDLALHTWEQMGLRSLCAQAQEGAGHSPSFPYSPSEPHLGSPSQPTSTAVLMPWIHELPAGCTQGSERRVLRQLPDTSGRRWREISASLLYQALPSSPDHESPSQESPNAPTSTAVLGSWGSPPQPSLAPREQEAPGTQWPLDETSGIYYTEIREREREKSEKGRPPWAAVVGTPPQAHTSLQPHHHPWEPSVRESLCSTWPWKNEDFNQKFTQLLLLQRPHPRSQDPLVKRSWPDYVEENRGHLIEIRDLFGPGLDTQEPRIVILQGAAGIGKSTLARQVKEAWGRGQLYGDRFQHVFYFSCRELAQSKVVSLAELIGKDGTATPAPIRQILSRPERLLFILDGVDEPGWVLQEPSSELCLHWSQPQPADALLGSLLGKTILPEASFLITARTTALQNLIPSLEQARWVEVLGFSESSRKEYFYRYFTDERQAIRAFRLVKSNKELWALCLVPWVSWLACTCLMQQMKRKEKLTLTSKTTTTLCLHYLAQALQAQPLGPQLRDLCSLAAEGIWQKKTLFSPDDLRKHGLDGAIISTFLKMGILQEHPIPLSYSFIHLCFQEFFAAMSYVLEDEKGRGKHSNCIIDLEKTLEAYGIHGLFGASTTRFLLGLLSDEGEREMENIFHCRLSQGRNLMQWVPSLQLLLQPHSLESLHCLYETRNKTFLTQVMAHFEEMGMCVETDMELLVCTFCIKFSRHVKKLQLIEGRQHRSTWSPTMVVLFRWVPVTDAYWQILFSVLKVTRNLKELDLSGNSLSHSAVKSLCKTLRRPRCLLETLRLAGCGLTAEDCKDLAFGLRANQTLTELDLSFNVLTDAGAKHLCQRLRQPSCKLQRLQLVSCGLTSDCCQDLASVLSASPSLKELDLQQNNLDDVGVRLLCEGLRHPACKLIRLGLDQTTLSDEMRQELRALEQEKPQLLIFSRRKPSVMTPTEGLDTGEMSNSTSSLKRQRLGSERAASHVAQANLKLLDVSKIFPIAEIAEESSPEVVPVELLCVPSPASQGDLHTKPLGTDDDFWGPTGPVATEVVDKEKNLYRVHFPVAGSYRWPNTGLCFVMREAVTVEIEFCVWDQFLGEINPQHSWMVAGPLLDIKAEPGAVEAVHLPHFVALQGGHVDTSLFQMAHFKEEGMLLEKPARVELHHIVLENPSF
Chain of NACHT, LRR and PYD domains-containing protein 1 (Q9C000 1213-1473 limits assumed): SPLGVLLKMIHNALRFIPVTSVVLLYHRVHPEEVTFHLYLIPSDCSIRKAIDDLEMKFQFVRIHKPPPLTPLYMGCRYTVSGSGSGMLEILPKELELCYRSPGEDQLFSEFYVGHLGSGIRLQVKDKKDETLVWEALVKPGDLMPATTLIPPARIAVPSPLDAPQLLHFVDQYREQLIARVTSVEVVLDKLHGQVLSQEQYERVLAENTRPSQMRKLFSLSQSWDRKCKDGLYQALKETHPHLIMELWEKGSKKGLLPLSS
T2 sequence (Q9UBE0 whole entry): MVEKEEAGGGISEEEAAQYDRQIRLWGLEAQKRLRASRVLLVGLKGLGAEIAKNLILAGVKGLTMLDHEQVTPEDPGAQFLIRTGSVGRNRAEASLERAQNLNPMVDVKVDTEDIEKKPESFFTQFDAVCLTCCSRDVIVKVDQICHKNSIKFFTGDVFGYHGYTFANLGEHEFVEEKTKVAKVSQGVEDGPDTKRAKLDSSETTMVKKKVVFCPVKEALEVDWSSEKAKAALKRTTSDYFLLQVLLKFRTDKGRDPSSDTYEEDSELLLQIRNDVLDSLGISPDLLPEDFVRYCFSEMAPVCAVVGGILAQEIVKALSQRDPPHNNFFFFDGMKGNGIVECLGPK
T2 sequence (Q9UBT2 whole entry): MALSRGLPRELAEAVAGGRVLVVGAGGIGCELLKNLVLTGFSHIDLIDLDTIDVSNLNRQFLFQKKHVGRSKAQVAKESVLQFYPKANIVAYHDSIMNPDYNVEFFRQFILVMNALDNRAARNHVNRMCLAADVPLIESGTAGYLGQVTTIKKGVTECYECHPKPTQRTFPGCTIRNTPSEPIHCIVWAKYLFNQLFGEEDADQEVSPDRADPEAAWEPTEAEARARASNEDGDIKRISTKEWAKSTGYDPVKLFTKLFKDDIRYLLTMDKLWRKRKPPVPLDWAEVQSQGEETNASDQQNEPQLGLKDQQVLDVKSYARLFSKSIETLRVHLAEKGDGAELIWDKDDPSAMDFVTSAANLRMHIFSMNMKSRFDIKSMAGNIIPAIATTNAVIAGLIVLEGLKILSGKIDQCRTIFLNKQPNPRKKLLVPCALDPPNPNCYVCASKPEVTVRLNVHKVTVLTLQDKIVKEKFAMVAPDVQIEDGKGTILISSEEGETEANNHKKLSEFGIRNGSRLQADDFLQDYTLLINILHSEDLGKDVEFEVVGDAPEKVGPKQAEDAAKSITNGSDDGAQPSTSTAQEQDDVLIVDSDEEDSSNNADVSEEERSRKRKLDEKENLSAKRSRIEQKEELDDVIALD
Chain of Beta-galactosidase (Q8VNN2 whole entry): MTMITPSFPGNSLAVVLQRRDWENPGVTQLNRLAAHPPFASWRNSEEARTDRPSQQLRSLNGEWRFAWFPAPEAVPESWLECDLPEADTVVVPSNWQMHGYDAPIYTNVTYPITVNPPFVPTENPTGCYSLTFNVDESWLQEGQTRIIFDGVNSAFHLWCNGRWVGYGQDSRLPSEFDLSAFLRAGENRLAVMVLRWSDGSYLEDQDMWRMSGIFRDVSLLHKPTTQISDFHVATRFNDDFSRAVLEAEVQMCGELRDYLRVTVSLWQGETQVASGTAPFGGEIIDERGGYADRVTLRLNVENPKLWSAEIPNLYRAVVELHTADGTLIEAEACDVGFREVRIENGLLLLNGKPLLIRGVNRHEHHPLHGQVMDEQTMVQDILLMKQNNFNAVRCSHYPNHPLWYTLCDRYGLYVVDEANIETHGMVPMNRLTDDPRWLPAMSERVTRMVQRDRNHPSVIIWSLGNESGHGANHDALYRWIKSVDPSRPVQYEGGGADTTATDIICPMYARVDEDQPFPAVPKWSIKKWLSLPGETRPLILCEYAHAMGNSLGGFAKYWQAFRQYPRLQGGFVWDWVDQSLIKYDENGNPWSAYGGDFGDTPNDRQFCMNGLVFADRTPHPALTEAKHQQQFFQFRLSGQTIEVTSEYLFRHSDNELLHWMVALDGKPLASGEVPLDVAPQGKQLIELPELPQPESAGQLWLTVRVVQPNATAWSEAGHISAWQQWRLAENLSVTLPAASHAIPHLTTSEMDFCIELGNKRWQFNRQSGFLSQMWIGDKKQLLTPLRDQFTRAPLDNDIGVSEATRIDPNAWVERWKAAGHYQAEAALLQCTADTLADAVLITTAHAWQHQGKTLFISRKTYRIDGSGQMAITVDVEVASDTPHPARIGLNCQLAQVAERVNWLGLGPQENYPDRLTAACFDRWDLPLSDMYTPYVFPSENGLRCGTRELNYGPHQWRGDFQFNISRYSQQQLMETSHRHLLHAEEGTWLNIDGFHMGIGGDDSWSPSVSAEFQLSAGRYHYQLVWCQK
Chain of ORF 73 (O40947 whole entry): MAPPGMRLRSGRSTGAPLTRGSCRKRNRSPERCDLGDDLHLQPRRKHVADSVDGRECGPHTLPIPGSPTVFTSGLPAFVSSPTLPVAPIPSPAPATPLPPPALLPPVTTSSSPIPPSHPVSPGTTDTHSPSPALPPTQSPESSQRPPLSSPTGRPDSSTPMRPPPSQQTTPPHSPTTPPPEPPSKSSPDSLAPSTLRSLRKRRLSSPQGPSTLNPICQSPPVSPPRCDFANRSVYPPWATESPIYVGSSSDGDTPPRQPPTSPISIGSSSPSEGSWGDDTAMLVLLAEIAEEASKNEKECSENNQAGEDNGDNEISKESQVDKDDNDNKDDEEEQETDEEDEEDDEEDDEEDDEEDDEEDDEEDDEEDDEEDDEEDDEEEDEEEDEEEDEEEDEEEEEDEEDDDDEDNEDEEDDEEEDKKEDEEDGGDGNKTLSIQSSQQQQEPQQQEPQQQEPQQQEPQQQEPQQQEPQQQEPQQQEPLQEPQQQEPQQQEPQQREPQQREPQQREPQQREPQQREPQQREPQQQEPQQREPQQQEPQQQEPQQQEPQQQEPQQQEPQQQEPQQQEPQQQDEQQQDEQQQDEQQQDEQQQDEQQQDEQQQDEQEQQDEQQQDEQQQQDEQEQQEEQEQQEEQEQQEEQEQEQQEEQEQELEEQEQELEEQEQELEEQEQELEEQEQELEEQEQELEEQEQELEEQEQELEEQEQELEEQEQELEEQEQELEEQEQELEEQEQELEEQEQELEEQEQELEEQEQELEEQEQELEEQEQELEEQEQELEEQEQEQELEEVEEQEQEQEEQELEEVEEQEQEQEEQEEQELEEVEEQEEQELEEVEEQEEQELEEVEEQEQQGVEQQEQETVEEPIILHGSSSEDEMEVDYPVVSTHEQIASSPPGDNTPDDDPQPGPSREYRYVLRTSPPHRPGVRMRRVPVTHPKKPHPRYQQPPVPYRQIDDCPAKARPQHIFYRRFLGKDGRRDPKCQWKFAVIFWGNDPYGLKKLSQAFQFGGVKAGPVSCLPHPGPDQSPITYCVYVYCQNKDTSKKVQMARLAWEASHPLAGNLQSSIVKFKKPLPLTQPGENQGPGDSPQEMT

For `CN(C)c1ccc(NC(=O)CN2C(=O)CC(c3ccccc3)=Nc3ccccc32)cc1`, the IC50 (Bcl-2-like protein 10) was > 100 µM (inactive).
For `CC(=O)c1ccc(NC(=O)Nc2ccc(Cl)cc2)cc1`, the IC50 (Saccharomyces cerevisiae) was 2.98 µM (active) and the IC50 [1] was 35.9 µM (active).
For `O=C(NC12CC3CC(CC(C3)C1)C2)N1CCN(c2ncccn2)CC1`, the AC50 (Salmon testes DNA) was 210 µM (active) and the AC50 (ORF 73) was 81.5 µM (active).
For `O=C(COC(=O)Cn1cnc2ccccc21)Nc1cc2c(cc1Cl)C(=O)c1ccccc1C2=O`, the EC50 (H4) was 40.4 µM (active), the EC50 [2] was > 12 µM (not active) and the EC50 [3] was 1.19 µM (active). The EC50 [4] was < 0.1 µM (active), the EC50 [5] was > 12 µM (not active) and the EC50 [6] was 2.52 µM (active). The EC50 [7] was 0.609 µM (active), the EC50 [8] was > 195 µM (inactive) and the EC50 [9] was > 120 µM (not active).
In the case of `CCN(C(=O)COC(=O)c1cccnc1Nc1cccc(C(F)(F)F)c1)C1CCS(=O)(=O)C1` (stereo not drawn), the IC50 (Saccharomyces cerevisiae) is reported as > 100 µM (inactive) and the IC50 [1] is reported as > 100 µM (inactive).
For `O=C1NC(=O)C(=Cc2c[nH]c3ccc(OCc4ccccc4)cc23)C(=O)N1`, the IC50 (SUMO-activating enzyme [10]) was 20.9 µM (active), the EC50 [11] was > 99 µM (inactive) and the EC50 [12] was > 99 µM (inactive). For the same molecule, the IC50 (SUMO-activating enzyme [13]) was 11 µM (active).
For `C=C1CC[C@@]2(O)[C@H]3Cc4ccc(O)c5c4[C@@]2(CCN3CC2CC2)[C@H]1O5`, the EC50 (Beta-galactosidase) was > 31.5 µM (inactive).
With `CC(C)(C)c1ccc(-n2ncc3c2CCCC3NC(=O)C2(C(N)=O)CC2)cc1` (stereo not drawn) the EC50 (cells) was > 29.9 µM (inactive), the AC50 [14] was 0.807 µM (active) and the IC50 (Galanin receptor type 3) was 0.408 µM (active). For the same molecule, the AC50 (INS1) was 4.11 µM (active), the IC50 [15] was > 80 µM (inactive) and the AC50 [16] was 0.589 µM (active). For the same molecule, the AC50 [17] was 13.4 µM (active).
